# ChEMBL document CHEMBL1157539, “Thousands of chemical starting points for antimalarial lead identification” (Nature, 2010)
# Test system: Plasmodium falciparum
# Assay: GSK_TCMDC: Inhibition of Plasmodium falciparum 3D7 in whole erythrocytes, using parasite LDH activity as an index of growth.
# Type: functional, organism-based
# Details: Plasmodium falciparum, 3D7
row,Compound,XC50 [nM]
1,O=C([C@H]1CCCCN1c1ccc([N+](=O)[O-])c2ccccc12)N1CCN(c2ncccn2)CC1,199
2,CCC(CC)n1c(C)cc2c3c(N)nc(N)nc3ccc21,3.2
3,Cc1ccc(Cn2ccc3c4c(N)nc(N)nc4ccc32)cc1,3.2
4,CC1CN(c2ccc(NC(=O)c3cccs3)cc2)CCN1Cc1cccc(F)c1 (stereo unspecified),492
5,CN1CCCN(Cc2cccc(-c3ccc(NC(=O)c4cccc(C#N)c4)cc3)c2)CC1,723
6,O=C(Nc1ccc(-c2cccc(CN3CCC(O)CC3)c2)cc1)c1cccc(Cl)c1,826
7,CC(C)c1ccc(NC(=O)c2ccc(NCCCN(C)Cc3ccccc3)c([N+](=O)[O-])c2)cc1,683
8,CCC(C)c1cnc2nc(N)nc(N)c2c1C (stereo unspecified),444
9,Cn1c(N)c(C(=O)CSc2nnc(-c3cccs3)n2Cc2ccccc2)c(=O)n(C)c1=O,792
10,COc1cc2ccccc2c(CNCCCCCCNCc2c(OC)c(OC)cc3ccccc23)c1OC,1110
11,CCCCn1c(C(C)Oc2ccc(Cl)cc2Cl)nc2cc(S(N)(=O)=O)ccc21 (stereo unspecified),707
12,CC[C@H]1CN2CC[C@H]1C[C@H]2[C@H](O)c1cc(-c2ccc(F)cc2)nc2ccc(OC)cc12,49.7
13,COc1ccc(NC(=O)CCNc2cc(C)nc(NCc3ccccc3C)n2)cc1,1070
14,CC[C@H]1CN2CC[C@H]1C[C@H]2[C@H](O)c1cc(-c2ccc(C)cc2)nc2ccc(OC)cc12,109
15,Nc1nccc2ccc(Oc3ccncc3)cc12,481
16,O=C(Nc1ccc2c(c1)CN(Cc1ccc(N3CCCC3)o1)CCC2)c1ccoc1,953
17,N#Cc1ccccc1C(=O)N(Cc1cncn1Cc1cccc(F)c1)CC1CC1,734
18,O=C(/C=C/c1ccc(Cl)c(Cl)c1)NC1CCC(CN2CCC(c3c[nH]c4ccncc34)CC2)CC1 (stereo unspecified),398
19,CCCCN(CCCC)CCNC(=O)c1ccc(-c2nc3cc(Cl)ccc3[nH]2)c(OCC)c1,570
20,Cc1cccc2nc(-c3cccc(-c4cccc(CNCc5ccccc5)c4)c3)[nH]c12,393
21,Cc1sc2cc(Cl)cc(Cl)c2c1S(=O)(=O)Nc1ccc2nccc(N3CCNCC3)c2c1,124
22,CCCN1CC[C@@H](CCCc2ccnc3ccc(O)cc23)[C@@H](CC)C1,889
23,CCCNCc1ccc(-c2ccc(CN(Cc3cnc(C)cn3)C(=O)/C=C/c3ccccc3C)cc2)nc1,919
24,CCC(CC)OC(=O)C(C)c1cccc(C(=O)c2ccccc2)c1 (stereo unspecified),833

row,Compound,XC50 [nM]
1,CCC(=O)N(c1ccccc1)C1CCN(CCCC(NC(=O)c2cc(C(F)(F)F)cc(C(F)(F)F)c2)c2ccc(Cl)c(Cl)c2)CC1 (stereo unspecified),803
2,CC1CN(c2ccc(NC(=O)c3ccsc3)cc2C(=O)N2CCN(Cc3ccc(C(C)(C)C)cc3)CC2)CC(C)O1 (stereo unspecified),866
3,COc1ccc(Cl)cc1NC(=O)CN(C)C(=O)c1cnn(-c2ccccc2)n1,228
4,O=C(NCCN1CCCC1)c1ccc(-c2ccc(-c3nc4cc(C(F)(F)F)ccc4[nH]3)s2)cc1,752
5,Cc1ccc(CNC(=N)NC(=O)c2nc(Cl)c(NCc3ccc(Cl)cc3)nc2N)c(C)c1,167
6,CCC(CCON1C(N)=NC(N)=NC1(C)C)c1ccc(Cl)cc1 (stereo unspecified),3.2
7,CCN(CC)S(=O)(=O)c1ccc(C(C)NC(=O)c2ccccc2COc2ccccc2)cc1 (stereo unspecified),330
8,O=c1cc(NCCNCc2cccc(-c3ccccc3)c2)[nH]c2ccccc12,1030
9,CC(C)(C)COC(=O)c1ccc(NC(=O)N[C@@H](Cc2ccc(O)cc2)C(=O)NC2CCN(Cc3ccc(O)cc3)C2)cc1 (stereo partly specified),668
10,CCn1c(-c2cc(C)on2)nc2cnc(Oc3ccc(C(=O)N4CC(=O)N(C)C4C(C)(C)C)cc3)cc21 (stereo unspecified),1820
11,Cc1cccc(Nc2nccc(Nc3cccc(C(=O)NCCN4CCOCC4)c3)n2)c1,1420
12,N#Cc1cncc(-c2nc3c(N4CCCC(N)C4)cccc3n2CCNCc2ccccc2)c1 (stereo unspecified),768
13,CCN(CC)CCCNc1ncc2c(-c3ccc(NC(=O)Nc4cc(C(F)(F)F)ccc4F)cc3)nn(C)c2n1,220
14,COc1ccc(NC(=O)[C@H](CC(C)C)Nc2cc(C)nc(NCCc3ccc(F)cc3)n2)cc1,925
15,COc1cc2nccc(Nc3cc(C)cc(O)c3)c2cc1OC,905
16,CN1CCN(CCCN(Cc2csc(-c3ccc(CNCc4ccccc4)cc3)n2)S(=O)(=O)c2ccccc2Cl)CC1,876
17,O=C(NC1CCCc2ccccc21)[C@@H]1CCCN1C(=O)c1ccc(O)c(-c2cccc([N+](=O)[O-])c2)c1 (stereo partly specified),678
18,OCC1CCN(Cc2ccc(-c3ccc(-c4nc5ccccc5[nH]4)cc3)cc2)CC1,898
19,CNC(=O)c1ccccc1Nc1nc(Nc2cccnc2)ncc1C,101
20,Nc1nc2ccc(S(=O)(=O)Nc3ccc(C(=O)N[C@@H](CCC(=O)O)C(=O)O)c(F)c3)cc2c(=O)[nH]1,824
21,ON=C(c1nc2ccccc2[nH]1)c1nc2ccccc2[nH]1,1090
22,Oc1ccccc1CN(CCCN(Cc1ccccn1)Cc1ccccc1O)Cc1ccccn1,1060
23,S=C(NCCc1ccc(Cl)cc1)N1CCC(CN2CCC(c3c[nH]c4ccccc34)CC2)CC1,1000
24,NCc1ccc(CNCc2cccc(-c3ccc(-c4nc5cc(C(F)(F)F)ccc5[nH]4)cc3)c2)cc1,261

row,Compound,XC50 [nM]
1,O=C(CNC(=O)c1ccc(O)cc1)Nc1cccc(-c2cccc(-c3nc4cc(C(F)(F)F)ccc4[nH]3)c2)c1,1040
2,COc1ccc2nccc(N3CCN(CCNCc4ccc5c(n4)NC(=O)CS5)CC3)c2c1,950
3,CCCCSc1ccc(CNCCCCCCNCc2ccc(SCCCC)c3ccccc23)c2ccccc12,631
4,CC(Cc1ccc(OCCN2CCN(c3ccccc3)CC2)cc1)NCC(O)c1cccc(Cl)c1F (stereo unspecified),873
5,N#Cc1ccc2[nH]c(-c3cc(-c4cccc(F)c4)cnc3N)nc2c1,193
6,CC1N=C(N)N=C(N)N1OCc1ccccc1 (stereo unspecified),32.9
7,O=C(Nc1cccc(-c2nn3ccccc3c2-c2ccnc(Nc3ccc(-c4cc[nH]n4)cc3)n2)c1)c1c(F)cccc1F,189
8,CCCCCn1c(Sc2ccc(C#N)c([N+](=O)[O-])c2)nnc1-c1cccc(Cl)c1,768
9,CC(=NNC(S)=NC(c1ccccc1)c1ccccc1)c1ccccn1,896
10,COCCSc1nc2scc(C)c2c(=O)n1Cc1cccc(OC)c1,912
11,CCOc1ccc(Br)cc1/C=C/C(=O)Nc1ccc2c(c1)CN(C)CCC2,824
12,Cc1nc2ccc3ccc(CNc4ccc(C(=O)CC(CCC(=O)O)C(=O)O)cc4)cc3c2c(=O)[nH]1 (stereo unspecified),35.7
13,Cn1nc(C(F)(F)F)cc1-c1ccc(C(=O)NC2CCC(CN3CCC(c4c[nH]c5ccccc45)CC3)CC2)s1 (stereo unspecified),565
14,O=C(CNC1CCCCC1)Nc1cccc(C(=O)Nc2cccc(C(F)(F)F)c2)c1,416
15,Cc1ccc(N)cc1-c1nc(NC2CC(C)(C)NC(C)(C)C2)nc2c1ccc(=O)n2-c1c(F)cccc1F,842
16,Cc1ccc2cc(NC(=O)CCCCCCCON3C(N)=NC(N)=NC34CCCCC4)ccc2n1,92.5
17,COc1ccc(CNC2CCN(c3ccc(NC(=O)c4cccc(Cl)c4)cc3)CC2)cc1OC,1020
18,Cc1cc(=NN=Cc2ccc(F)cc2)c2cccc(C)c2[nH]1,779
19,O=C(Nc1cccc(-c2nn3ccccc3c2-c2ccnc(Nc3cccc(F)c3)n2)c1)c1c(F)ccc(F)c1Cl,1140
20,CC(C)C(C)(C#N)NC(=O)CSc1nc2ccc([N+](=O)[O-])cc2s1 (stereo unspecified),1030
21,O=C(Cc1cccnc1)Nc1cccc(-c2cccc(-c3nc4cc(C(F)(F)F)ccc4[nH]3)c2)c1,677
22,O=C(c1cc(-c2cccs2)n[nH]1)N1CCN(S(=O)(=O)c2ccc(Cl)cc2)CC1,292
23,Nc1ccc2[nH]cc(C3CCN(CC4CCC(NC(=O)/C=C/c5ccc(Cl)c(Cl)c5)CC4)CC3)c2n1 (stereo unspecified),731
24,CCc1ccc(C2CCN(CCCCNC(=O)c3ccc(-c4ccc(Cl)cc4)cc3)CC2)c(O)c1,891

row,Compound,XC50 [nM]
1,CCCN(CC)CCOC(=O)c1ccccc1,739
2,CN1CCN(CCCN(Cc2ccc(-c3cccc(CNCc4ccc5c(c4)OCO5)c3)cc2)C(=O)NC2CCCCC2)CC1,988
3,Cc1cc(Nc2ccncc2)n2nc(C)c(-c3ccc(Cl)cc3)c2n1,157
4,COc1ccc(-c2ccc(NC(=O)c3cccc(C#N)c3)cc2)cc1CN1CCCC(C(N)=O)C1 (stereo unspecified),863
5,Nc1nc(N)c2cc3ccc(OCc4ccccc4)cc3nc2n1,320
6,Cc1sc2nc(CN3CCCC3)nc(-n3c(NCCO)nc4ccccc43)c2c1C,1240
7,CC(C)/C(=C(/F)CN1C(=O)C(NC(=O)c2cc3ccccc3[nH]2)C(=O)N(c2ccccc2)c2ccccc21)c1ccccc1 (stereo unspecified),697
8,CCCNC[C@@H](O)[C@H](Cc1ccccc1)NC(=O)c1cc(NCC)cc(N2CCCCS2(=O)=O)c1,224
9,Cc1c(Cc2ccccc2Cl)cnc2nc(N)nc(N)c12,7.42
10,O=c1c2c([nH]c3cc(Cl)ccc13)CCCC2,810
11,O=C(Nc1ccc(-c2nc3ccccc3[nH]2)cc1)C1CCN(Cc2ccccc2)CC1,1760
12,O=S(=O)(c1cc(Cl)c(Cl)cc1Cl)N1CCCCC(c2ccc(C(F)(F)F)cc2)=N1,205
13,CC1CCCN(S(=O)(=O)c2cc(Br)cc3c2N(C(=O)C2CC2)CC3)C1 (stereo unspecified),724
14,CN1CCCC(CN2CCN(Cc3ccc(-c4cccc(-c5nc6cc(F)ccc6[nH]5)c4)cc3)CC2)C1 (stereo unspecified),184
15,COc1ccc(C2C(C(=O)Nc3ccc4c(c3)OCO4)c3cc(OC)c(OC)cc3C(=O)N2C)cc1 (stereo unspecified),1040
16,O=C(Nc1cccc(-c2cccc(-c3nc4cc(C(F)(F)F)ccc4[nH]3)c2)c1)c1csnn1,238
17,O=C(CNC1CCCCC1)c1ccc(O)c(O)c1,660
18,C[C@@H](Oc1cc(-n2cnc3ccc(NC(=O)NC(C)(C)C)cc32)sc1C(N)=O)c1ccccc1Cl,330
19,Nc1ncc(-c2ccsc2)c2ccc(-c3cnc[nH]3)cc12,573
20,Cc1ccc(S(=O)(=O)NC2CCN(c3ccnc4cc(Cl)ccc34)C2)cc1 (stereo unspecified),621
21,CCCCCCP(=O)(COc1ccc(CCN(CC(O)COc2cccc3[nH]c(C(N)=O)cc23)CC(O)COc2cccc3[nH]c(C(N)=O)cc23)cc1)OCCCC (stereo unspecified),724
22,O=C(CCc1cccnc1)Nc1cccc(-c2ccc(-c3nc4cc(C(F)(F)F)ccc4[nH]3)s2)c1,953
23,NC(=O)c1ccc(C(=O)Nc2cccc(-c3cccc(-c4nc5cc(C(F)(F)F)ccc5[nH]4)c3)c2)cc1,229
24,COc1ccc(CN2CCC(CNC(C)c3cccc4ccccc34)CC2)cc1 (stereo unspecified),175
